Reference: patent publication US9353067B2, “Heterocyclic compounds and uses thereof in the treatment of sexual disorders” (ATIR Holding S.A., priority 2011, dated 2016)
Values belong to the compound of their own block, whether it stands above or below them.

Legend:
PARP-1 = PARP-1 (Homo sapiens (Human), UniProt P09874); experiment: Universal Chemiluminescent PARP Assay; type: biochemical; conditions: average results from two assays
Method: In addition, R-55 and its hydrochloride salt were assayed for PARP (poly(ADP-ribose)polymerase) inhibitory activity, as some quinazolinone derivatives, particularly derivatives comprising quinazolinone linked via a three-carbon moiety to substituted pyridinyl and piperazinyl moieties, have been identified as potent PARP inhibitors [U.S. Patent Application Publication No. 2004/0077667; Iwashita et al., FEBS Lett 579:1389-1393(2005); Hattori et al., J Med Chem 47:4151-4154(2004)]. PARP plays a natural role in repair of DNA damage, and inhibition of PARP may lead to undesirable side effects in any treatment of a sexual disorder.
Inhibition of PARP-1 was assayed using a Universal Chemiluminescent PARP Assay (Trevigen, Inc.).
The tested compounds were diluted from 2.1 mg of powder in 25 μl of DMSO. The tested compounds were diluted to 100 μM in 1% DMSO/99% ethanol. 3-Aminobenzamide (3-AB), a commercially available weak PARP inhibitor, was used as a positive control. The activity of PARP was quantified as relative light units (RLU). Each of the tested compounds was assayed twice.
In Assay 1, the 100 μM stock solution was diluted to 40 μM in 1×PARP buffer. The compounds were then serially diluted down to 0.4 μM. Each tested compound was
further diluted 1:4 during the assay, so the final concentrations ranged from 10 μM to 0.1 μM.
In Assay 2, the 100 μM stock was added to 1×PARP buffer to prepare samples with concentrations ranging from 40 μM to 2 μM. A 10 μM stock solution was added to 1×PARP buffer to prepare samples with concentrations of 1 μM and 0.4 μM. Each tested compound was further diluted 1:4 during the assay, so the final concentrations ranged from 10 μM to 0.1 μM.

Dopamine D5 receptor = Dopamine D5 receptor (Homo sapiens (Human), UniProt P21918); experiment: Competitive binding, SCH-23390 radioligand
Sequence of Dopamine D5 receptor (P21918 whole entry): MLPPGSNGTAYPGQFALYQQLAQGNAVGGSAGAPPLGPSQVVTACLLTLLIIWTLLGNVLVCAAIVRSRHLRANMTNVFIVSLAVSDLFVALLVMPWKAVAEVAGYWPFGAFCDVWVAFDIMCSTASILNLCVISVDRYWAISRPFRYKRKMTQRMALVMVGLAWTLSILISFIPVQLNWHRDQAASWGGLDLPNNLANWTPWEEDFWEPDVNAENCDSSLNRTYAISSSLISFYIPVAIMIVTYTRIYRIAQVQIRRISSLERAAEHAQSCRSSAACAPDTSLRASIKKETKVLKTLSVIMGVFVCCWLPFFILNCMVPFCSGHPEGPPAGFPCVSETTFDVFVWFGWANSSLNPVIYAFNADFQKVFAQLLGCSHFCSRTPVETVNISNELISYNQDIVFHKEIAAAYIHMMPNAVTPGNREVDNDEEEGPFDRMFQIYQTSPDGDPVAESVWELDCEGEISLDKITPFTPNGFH
Method: (§1) R-55 (which comprises a 3-hydroxyphenyl moiety) and the structurally related compounds N-108 (2-{[4-(2-ethoxyphenyl)piperazin-1-yl]methyl}quinazolin-4(3H)-one) and B-39 (7-chloro-2-((5,6-dihydro-4-(2-methoxyphenyl)pyridin-1(2H)-yl)methyl)quinazolin-4(3H)-one) were assayed for competitive binding to a variety of receptors, including D4.4 type dopamine receptor, in order to assess their specificity for D4.4 dopamine receptors.
(§2) The receptors were expressed as human recombinant proteins in CHO cells, except for adrenergic α1 and α2 receptors which were expressed in Wistar rat brain and cerebral cortex cells, respectively, and melanocortin MC4 receptor which was expressed in human recombinant HEK-293 cells. Binding was determined using the following radioligands in the presence of various concentrations of the tested compound:
(§3) 1.4 nM and 2 nM SCH-23390, respectively, for dopamine D1 and D5 receptors,
(§4) The binding assays were performed in accordance with procedures described in the literature (Greengrass & Bremner, 1979; Boyajian & Leslie, 1987; Broadhurst, 1988; Lewis, 2001; Sutton, 1995; Dearry, 1990; Zhou, 1990; Grandy, 1989; Hayes, 1992; Sokoloff, 1990; Van Tol, 1991; Van Tol 1992; Sunahara, 1991; Weinshank, 1991; Schioth, 1996; Schioth 1997; Martin & Humphrey, 1994; May, 2003; Wolf & Schutz, 1997).

Dopamine D1 receptor = Dopamine D1 receptor (Homo sapiens (Human), UniProt P21728); experiment: Competitive binding, SCH-23390 radioligand
Sequence of Dopamine D1 receptor (P21728 whole entry): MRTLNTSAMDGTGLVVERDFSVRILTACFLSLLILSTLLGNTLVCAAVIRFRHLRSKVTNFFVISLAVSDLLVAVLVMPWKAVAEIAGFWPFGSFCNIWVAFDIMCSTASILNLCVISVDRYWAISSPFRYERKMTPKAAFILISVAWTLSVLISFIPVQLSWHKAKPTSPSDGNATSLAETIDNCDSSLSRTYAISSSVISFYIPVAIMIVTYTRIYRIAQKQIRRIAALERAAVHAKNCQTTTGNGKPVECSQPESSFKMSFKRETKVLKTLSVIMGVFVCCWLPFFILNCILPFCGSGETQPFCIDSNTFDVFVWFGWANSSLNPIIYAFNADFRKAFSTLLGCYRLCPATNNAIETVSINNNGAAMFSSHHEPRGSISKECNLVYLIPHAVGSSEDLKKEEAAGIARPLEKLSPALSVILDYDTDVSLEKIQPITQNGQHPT
Method: as §1, §2, §3, §4

Adrenergic α1 receptor = experiment: Competitive binding, prazosin radioligand; design: species or system Wistar rat
Method: as §1, §2
0.25 nM prazosin for adrenergic α1 receptor,
as §4

CRF1 receptor = CRF1 receptor (Homo sapiens (Human), UniProt P34998); experiment: Competitive binding, (Tyr0)-CRF radioligand
Sequence of CRF1 receptor (P34998 24-415): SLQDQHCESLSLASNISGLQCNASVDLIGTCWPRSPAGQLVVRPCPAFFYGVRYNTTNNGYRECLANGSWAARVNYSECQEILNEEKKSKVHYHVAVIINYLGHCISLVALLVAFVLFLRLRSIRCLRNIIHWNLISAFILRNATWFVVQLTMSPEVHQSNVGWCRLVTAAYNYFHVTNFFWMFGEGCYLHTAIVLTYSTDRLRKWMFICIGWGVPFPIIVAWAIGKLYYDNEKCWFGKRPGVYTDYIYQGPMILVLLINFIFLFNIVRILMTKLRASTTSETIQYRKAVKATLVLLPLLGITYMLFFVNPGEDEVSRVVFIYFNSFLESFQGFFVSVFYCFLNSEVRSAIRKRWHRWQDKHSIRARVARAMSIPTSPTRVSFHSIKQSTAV
Method: as §1, §2
0.05 nM)(Tyr^0)-corticotropin releasing factor (CRF) for corticotropin releasing factor CRF1 receptor,
as §4

[1] = molecular target: Serotonin 5-HT2C receptor (Homo sapiens (Human), UniProt P28335); experiment: Competitive binding, mesulergine radioligand
Sequence of Serotonin 5-HT2C receptor (P28335 33-458): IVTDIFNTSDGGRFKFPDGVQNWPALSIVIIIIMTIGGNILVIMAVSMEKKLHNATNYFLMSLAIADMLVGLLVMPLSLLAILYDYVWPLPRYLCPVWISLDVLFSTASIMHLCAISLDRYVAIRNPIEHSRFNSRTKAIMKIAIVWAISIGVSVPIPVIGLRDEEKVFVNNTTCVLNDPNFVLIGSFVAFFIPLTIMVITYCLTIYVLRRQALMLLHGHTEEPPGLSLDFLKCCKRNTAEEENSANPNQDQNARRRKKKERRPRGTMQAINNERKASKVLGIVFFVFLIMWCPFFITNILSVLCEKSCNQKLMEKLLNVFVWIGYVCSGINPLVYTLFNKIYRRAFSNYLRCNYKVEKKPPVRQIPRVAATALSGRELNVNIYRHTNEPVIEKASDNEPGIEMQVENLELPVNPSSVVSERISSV
Method: as §1, §2
1 nM mesulergine for serotonin 5-HT2C receptor.
as §4

Adrenergic α2 receptor = experiment: Competitive binding, rauwolscine radioligand; design: species or system Wistar rat
Method: as §1, §2
0.7 nM rauwolscine for adrenergic α2 receptor,
as §4

[2] = molecular target: Serotonin 5-HT1A receptor (Homo sapiens (Human), UniProt P08908); experiment: Competitive binding, 8-OH-DPAT radioligand
Sequence of Serotonin 5-HT1A receptor (P08908 whole entry): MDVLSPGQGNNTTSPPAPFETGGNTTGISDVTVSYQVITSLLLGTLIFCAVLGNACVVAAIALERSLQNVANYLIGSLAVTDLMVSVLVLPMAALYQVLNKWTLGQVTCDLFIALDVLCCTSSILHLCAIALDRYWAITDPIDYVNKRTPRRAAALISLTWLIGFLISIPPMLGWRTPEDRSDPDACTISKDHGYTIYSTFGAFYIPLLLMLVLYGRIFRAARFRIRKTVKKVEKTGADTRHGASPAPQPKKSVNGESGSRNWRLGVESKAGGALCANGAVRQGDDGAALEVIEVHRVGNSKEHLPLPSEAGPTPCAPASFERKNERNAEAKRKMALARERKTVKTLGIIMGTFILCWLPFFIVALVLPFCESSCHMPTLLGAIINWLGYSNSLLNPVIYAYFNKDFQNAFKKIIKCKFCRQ
Method: as §1, §2
1.5 nM 8-OH-DPAT for serotonin 5-HT1A receptor, and
as §4

Dopamine D3 receptor = Dopamine D3 receptor (Homo sapiens (Human), UniProt P35462); experiment: Competitive binding, spiperone radioligand
Sequence of Dopamine D3 receptor (P35462 whole entry): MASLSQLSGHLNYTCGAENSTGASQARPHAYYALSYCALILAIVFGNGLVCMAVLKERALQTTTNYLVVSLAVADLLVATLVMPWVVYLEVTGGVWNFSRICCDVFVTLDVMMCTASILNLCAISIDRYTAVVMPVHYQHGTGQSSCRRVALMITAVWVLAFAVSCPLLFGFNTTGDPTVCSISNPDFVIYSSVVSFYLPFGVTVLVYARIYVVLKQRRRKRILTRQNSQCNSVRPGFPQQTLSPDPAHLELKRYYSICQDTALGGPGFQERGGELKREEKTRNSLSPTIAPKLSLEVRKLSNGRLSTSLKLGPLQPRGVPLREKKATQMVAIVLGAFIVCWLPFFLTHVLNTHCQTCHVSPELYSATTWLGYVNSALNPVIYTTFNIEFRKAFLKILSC
Method: as §1, §2
(§5) 0.16 nM, 0.7 nM and 1.2 nM spiperone, respectively, for dopamine D2S, D3 and D4.4 receptors,
as §4

Dopamine D2S receptor = Dopamine D2S receptor (Homo sapiens (Human), UniProt P14416); experiment: Competitive binding, spiperone radioligand
Sequence of Dopamine D2S receptor (P14416 other isoform, or with tags, fused parts or gaps): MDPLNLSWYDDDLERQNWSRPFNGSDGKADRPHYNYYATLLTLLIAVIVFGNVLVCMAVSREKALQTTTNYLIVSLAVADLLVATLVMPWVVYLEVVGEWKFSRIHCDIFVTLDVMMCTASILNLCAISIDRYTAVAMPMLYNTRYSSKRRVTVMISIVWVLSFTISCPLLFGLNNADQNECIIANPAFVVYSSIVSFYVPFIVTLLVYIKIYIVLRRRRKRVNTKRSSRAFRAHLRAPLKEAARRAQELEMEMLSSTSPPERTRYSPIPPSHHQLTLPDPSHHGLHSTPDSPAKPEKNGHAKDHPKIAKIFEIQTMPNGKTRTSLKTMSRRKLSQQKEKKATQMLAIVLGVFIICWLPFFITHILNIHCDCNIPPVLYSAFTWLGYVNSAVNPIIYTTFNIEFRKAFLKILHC
Method: as §1, §2, §5, §4

Dopamine D4.4 receptor = Dopamine D4.4 receptor (Homo sapiens (Human), UniProt P21917); experiment: Competitive binding, spiperone radioligand
Sequence of Dopamine D4.4 receptor (P21917 whole entry): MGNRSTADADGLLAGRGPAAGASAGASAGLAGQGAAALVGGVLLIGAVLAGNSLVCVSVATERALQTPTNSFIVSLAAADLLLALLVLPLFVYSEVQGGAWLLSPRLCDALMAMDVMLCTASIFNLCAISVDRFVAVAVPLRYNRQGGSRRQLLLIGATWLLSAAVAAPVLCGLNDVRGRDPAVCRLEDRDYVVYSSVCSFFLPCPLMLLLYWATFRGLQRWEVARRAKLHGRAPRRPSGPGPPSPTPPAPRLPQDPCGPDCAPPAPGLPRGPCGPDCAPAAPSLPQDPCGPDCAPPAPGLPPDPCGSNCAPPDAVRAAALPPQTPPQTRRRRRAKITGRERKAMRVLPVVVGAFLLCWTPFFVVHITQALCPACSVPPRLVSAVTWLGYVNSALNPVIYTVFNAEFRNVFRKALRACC
Method: as §1, §2, §5, §4

[3] = molecular target: Melanocortin MC4 receptor (Homo sapiens (Human), UniProt P32245); experiment: Competitive binding, NDP-α-MSH radioligand
Sequence of Melanocortin MC4 receptor (P32245 whole entry): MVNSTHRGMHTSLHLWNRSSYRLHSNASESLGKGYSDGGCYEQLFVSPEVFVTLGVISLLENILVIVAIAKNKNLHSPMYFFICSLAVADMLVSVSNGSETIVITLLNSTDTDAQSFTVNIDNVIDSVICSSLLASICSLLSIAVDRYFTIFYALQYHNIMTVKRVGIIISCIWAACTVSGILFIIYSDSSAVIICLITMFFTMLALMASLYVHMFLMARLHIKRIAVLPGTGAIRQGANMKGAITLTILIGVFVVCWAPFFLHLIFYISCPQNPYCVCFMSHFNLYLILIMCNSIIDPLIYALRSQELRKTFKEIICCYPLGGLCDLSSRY
Method: as §1, §2
0.02 nM NDP-α-MSH for melanocortin MC4 receptor,
as §4

[4] = Hydrolysis (half-life) of esterified derivatives of R-55 in rat plasma; type: in vitro ADME; conditions: 37° C.; for % L-207 (hydrolysis of L-207 to R-55): rat plasma
Method: (§6) 50 μl of dimethyl sulfoxide containing 0.2 mg of the tested derivative was added to 1 ml of fresh plasma (human or rat) in a sterile Eppendorf tube. The samples were then incubated at 37° C., and 100 μl samples were removed at various times, up to 120 minutes after incubation. The plasma samples were immediately added to 1 ml acetonitrile. After vigorous mixing by vortex, the samples were centrifuged for 10 minutes at 2000 rotations per minute at 4° C. 0.95 ml of the supernatant was then removed and stored at −20° C. until determination of the concentrations of R-55 and its esterified derivative by LCMS analysis.

[5] = Hydrolysis (half-life) of esterified derivatives of R-55 in human plasma; type: in vitro ADME; conditions: for % L-207 (hydrolysis of L-207 to R-55): human plasma
Method: as §6

[6] = Solubility of L-207 in solvents; type: physicochemical
Description: The compound was soluble in dimethylformamide, dimethyl sulfoxide, tetrahydrofuran, chloroform, dichloromethane, and HCl in diethyl ether, and non-soluble in water.

[7] = molecular target: D4.4 type dopamine receptor (Homo sapiens (Human), UniProt P21917); experiment: Competitive binding to D4.4 receptor ([3H]-YM-09151-2); conditions: human recombinant receptor in CHO cells, [3H]-YM-09151-2 0.3 nM
Sequence of D4.4 type dopamine receptor (P21917 whole entry): as the sequence (P21917 whole entry) above
Method: R-55 (which comprises a 3-hydroxyphenyl moiety) and its isomers L-221 (comprising a 4-hydroxyphenyl moiety) and L-238 (comprising a 2-hydroxyphenyl moiety) were assayed for competitive binding to D2 SHORT and D4.4 type dopamine receptors, in order to assess their efficacy for treating sexual disorders. Both receptor types are expressed as human recombinant proteins in CHO cells, as described, for example, in Jarvis et al. (1973); Van Tol et al. (1991) and Van Tol et al. (1992).
Determination of binding to D4.4 receptor was performed using [^3H]-YM-09151-2 (70-87 Ci/mmol, 0.3 nM), as a radioligand, in the presence of various concentrations of the tested compound. Reactions were carried out in 50 mM TRIS-HCl (pH 7.4) containing 5 mM MgCl2, 5 mM EDTA, 5 mM KCl and 1.5 mM CaCl2, for 60 minutes at 22° C. The reaction was terminated by rapid vacuum filtration onto glass fiber filters. Radioactivity trapped onto the filters was determined (counted) and compared to control values in order to accurately evaluate any interaction of the tested compound(s) with the cloned dopamine D4.4 binding site.

Sequence of PARP-1 (P09874 whole entry): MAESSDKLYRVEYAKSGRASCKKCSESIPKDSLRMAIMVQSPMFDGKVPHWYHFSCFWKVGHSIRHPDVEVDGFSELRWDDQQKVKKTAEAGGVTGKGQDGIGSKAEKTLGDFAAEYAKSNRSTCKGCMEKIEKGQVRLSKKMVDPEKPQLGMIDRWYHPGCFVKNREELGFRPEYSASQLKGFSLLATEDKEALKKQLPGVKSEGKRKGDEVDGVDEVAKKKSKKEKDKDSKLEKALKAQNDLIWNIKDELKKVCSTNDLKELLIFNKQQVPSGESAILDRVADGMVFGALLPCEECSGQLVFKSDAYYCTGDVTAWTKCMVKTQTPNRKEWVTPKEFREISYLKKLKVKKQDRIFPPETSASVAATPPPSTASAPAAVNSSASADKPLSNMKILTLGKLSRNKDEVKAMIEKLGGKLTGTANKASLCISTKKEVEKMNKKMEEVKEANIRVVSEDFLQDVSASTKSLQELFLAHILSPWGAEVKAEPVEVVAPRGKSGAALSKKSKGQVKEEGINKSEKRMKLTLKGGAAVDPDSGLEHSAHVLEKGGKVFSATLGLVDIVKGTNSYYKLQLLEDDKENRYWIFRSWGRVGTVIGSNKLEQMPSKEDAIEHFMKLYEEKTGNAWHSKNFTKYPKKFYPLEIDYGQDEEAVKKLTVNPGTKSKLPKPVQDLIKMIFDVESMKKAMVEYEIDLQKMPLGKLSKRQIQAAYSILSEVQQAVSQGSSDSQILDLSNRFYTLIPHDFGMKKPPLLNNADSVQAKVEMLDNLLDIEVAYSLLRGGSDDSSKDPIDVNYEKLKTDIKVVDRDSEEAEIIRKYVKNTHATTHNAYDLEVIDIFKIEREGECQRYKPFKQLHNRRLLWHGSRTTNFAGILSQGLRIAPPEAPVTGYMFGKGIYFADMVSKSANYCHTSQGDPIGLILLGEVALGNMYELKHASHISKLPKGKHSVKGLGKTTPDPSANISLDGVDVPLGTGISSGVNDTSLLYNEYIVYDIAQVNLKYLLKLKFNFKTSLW

inhibition at 5 µM (PARP-1; 5 μM): 21%
inhibition at 10 µM (PARP-1; 10 μM): 40%
SMILES: NC(=O)c1cccc(N)c1 [Compound 3-AB, 3-Aminobenzamide, reference compound]

SMILES: COc1ccccc1C1=CCN(Cc2nc3cc(Cl)ccc3c(=O)[nH]2)CC1 [Compound B-39, 7-chloro-2-((5,6-dihydro-4-(2-methoxyphenyl)pyridin-1(2H)-yl)methyl)quinazolin-4(3H)-one, reference compound]
Competitive binding (%) at 5 μM of tested compound (Dopamine D5 receptor): 7%
Competitive binding (%) at 5 μM of tested compound (Dopamine D1 receptor): 4%
Competitive binding (%) at 5 μM of tested compound (Adrenergic α1 receptor): 54%
Competitive binding (%) at 5 μM of tested compound (CRF1 receptor): −5%
Competitive binding (%) at 5 μM of tested compound [1]: 56%
Competitive binding (%) at 5 μM of tested compound (Adrenergic α2 receptor): 72%
Competitive binding (%) at 5 μM of tested compound [2]: 89%
Competitive binding (%) at 5 μM of tested compound (Dopamine D3 receptor): 32%
Competitive binding (%) at 5 μM of tested compound (Dopamine D2S receptor): 46%
Competitive binding (%) at 5 μM of tested compound (Dopamine D4.4 receptor; Dopamine D4.4 receptor, 5 μM): 57%
binding affinity to the D4.4 receptor (in words) (Dopamine D4.4 receptor; Table 8): high binding affinity
Competitive binding (%) at 5 μM of tested compound [3]: 5%

half-life at 0.19 mg/ml ([4]; fresh rat plasma, hydrolysis of ester to R-55, rat plasma, read-out: T1/2 in rat plasma): 0.483 h
% L-207 (hydrolysis of L-207 to R-55) ([4]; 0 minutes): 99.49%
% L-207 (hydrolysis of L-207 to R-55) ([4]; 15 minutes): 74.08%
% L-207 (hydrolysis of L-207 to R-55) ([4]; 30 minutes): 47.73%
% L-207 (hydrolysis of L-207 to R-55) ([4]; 60 minutes): 6.61%
% L-207 (hydrolysis of L-207 to R-55) ([4]; 90 minutes): 0.76%
% L-207 (hydrolysis of L-207 to R-55) ([4]; 120 minutes): 0.41%
half-life at 0.19 mg/ml ([5]; fresh human plasma, hydrolysis of ester to R-55, human plasma, 37° C., read-out: T1/2 in human plasma): 2.23 h
rate of hydrolysis (in words) ([5]; human and rat plasma, comparison of acyl moieties): relatively rapid hydrolysis
% L-207 (hydrolysis of L-207 to R-55) ([5]; 37° C., 10 minutes): 97.54%
% L-207 (hydrolysis of L-207 to R-55) ([5]; 37° C., 30 minutes): 89.21%
% L-207 (hydrolysis of L-207 to R-55) ([5]; 37° C., 60 minutes): 77.11%
% L-207 (hydrolysis of L-207 to R-55) ([5]; 37° C., 90 minutes): 64.67%
% L-207 (hydrolysis of L-207 to R-55) ([5]; 37° C., 120 minutes): 52.91%
solubility in organic solvents ([6]; dimethylformamide, dimethyl sulfoxide, tetrahydrofuran, chloroform, dichloromethane, HCl in diethyl ether): soluble
solubility in water ([6]; water): non-soluble
SMILES: O=C(Oc1cccc(N2CCN(Cc3nc4ccccc4c(=O)[nH]3)CC2)c1)c1ccccc1 [Compound L-207]

IC50 [7]: ~30 µM
SMILES: O=c1[nH]c(CN2CCN(c3ccc(O)cc3)CC2)nc2ccccc12 [Compound L-221, 2-((4-(4-hydroxyphenyl)piperazin-1-yl)methyl)quinazolin-4-one]
